Experiments:
[1] = 101 kPa, Liquid
[2] = xn = mol fraction of the nth substance listed; conditions: 101 kPa, Liquid

CO [methanol]
[1]
Conditions	mass density [kg/m3]	viscosity [mPa·s]
308.15 K	776.92	0.476
313.15 K	772.13	0.445
318.15 K	767.31	0.421
323.15 K	762.46	0.395
328.15 K	757.85	0.372

CO [methanol] + Cc1cccc(O)c1
[2], x2 = 0
Conditions	mass density [kg/m3]	viscosity [mPa·s]
308.15 K	776.92	0.476
313.15 K	772.13	0.445
318.15 K	767.31	0.421
323.15 K	762.46	0.395
328.15 K	757.85	0.372

Cc1cccc(O)c1 [3-methylphenol]
[1]
Conditions	mass density [kg/m3]	viscosity [mPa·s]
308.15 K	1021.64	7.701
313.15 K	1017.63	6.12
318.15 K	1013.6	5.022
323.15 K	1009.56	4.158
328.15 K	1005.93	3.518
333.15 K	1001.44	2.98
343.15 K	991.33	2.231
353.15 K	985.42	1.759

OCCO [1,2-ethanediol] + Cc1cccc(O)c1
[2], x2 = 0
Conditions	mass density [kg/m3]	viscosity [mPa·s]
308.15 K	1101.88	11.19
313.15 K	1098.33	9.444
318.15 K	1094.75	7.972
323.15 K	1091.16	6.794
333.15 K	1083.94	5.065
343.15 K	1074.53	3.879
353.15 K	1069.72	3.058

Cc1cccc(O)c1 [3-methylphenol] + CO
[2]
Conditions	mass density, 308.15 K [kg/m3]	mass density, 313.15 K [kg/m3]	mass density, 318.15 K [kg/m3]	mass density, 323.15 K [kg/m3]	mass density, 328.15 K [kg/m3]	viscosity, 308.15 K [mPa·s]	viscosity, 313.15 K [mPa·s]	viscosity, 318.15 K [mPa·s]	viscosity, 323.15 K [mPa·s]	viscosity, 328.15 K [mPa·s]
x1 = 0.0999	838.66	834.09	829.48	824.84	820.44	0.725	0.676	0.621	0.588	0.533
x1 = 0.1999	880.62	876.22	871.78	867.32	863.14	0.976	0.906	0.835	0.783	0.72
x1 = 0.2998	914.11	909.92	905.55	901.14	897.17	1.319	1.205	1.1	1.011	0.933
x1 = 0.3999	939.8	935.58	931.38	927.14	923.28	1.778	1.577	1.419	1.29	1.18
x1 = 0.4998	960.97	956.82	952.74	948.57	944.75	2.367	2.079	1.835	1.646	1.459
x1 = 0.6001	977.35	973.31	969.31	965.28	961.59	2.958	2.556	2.243	1.99	1.788
x1 = 0.6998	991.84	987.87	983.92	979.59	976.07	3.767	3.228	2.789	2.437	2.144
x1 = 0.7999	1002.99	998.97	994.93	990.88	987.18	4.783	4.007	3.418	2.936	2.551
x1 = 0.8999	1013.19	1009.18	1005.13	1001.1	997.41	6.06	4.978	4.153	3.507	2.995
x1 = 1	1021.64	1017.63	1013.6	1009.56	1005.93	7.701	6.12	5.022	4.158	3.518

OCCO [1,2-ethanediol]
[1]
Conditions	mass density [kg/m3]	viscosity [mPa·s]
308.15 K	1101.88	11.19
313.15 K	1098.33	9.444
318.15 K	1094.75	7.972
323.15 K	1091.16	6.794
333.15 K	1083.94	5.065
343.15 K	1074.53	3.879
353.15 K	1069.72	3.058

From the NIST ThermoML archive (doi:10.1021/je0504156)
